# Experiment: solvent given as SMILES
smiles,measurement,setting,value
CC1(C)C(/C=C/C2=C(c3ccc(C(=O)O)cc3)C(=C/C=C3/N(CCCS(=O)(=O)[O-])c4ccc5ccccc5c4C3(C)C)/CCC2)=[N+](CCCS(=O)(=O)[O-])c2ccc3ccccc3c21,absorption maximum,in CO,800 nm
CCCCCCCCC1(CCCCCCCC)c2cc(C=O)ccc2-c2ccc(/C=C/c3ccc(N(c4ccccc4)c4ccccc4)cc3)cc21,absorption maximum,in C1CCOC1,406 nm
same,absorption maximum,in C1COCCO1,411 nm
same,absorption maximum,in CC#N,406 nm
same,absorption maximum,in CC(C)=O,409 nm
same,absorption maximum,in CCCCCC,405 nm
same,absorption maximum,in CCOC(C)=O,409 nm
same,absorption maximum,in CN(C)C=O,410 nm
same,absorption maximum,in CS(C)=O,408 nm
same,absorption maximum,in Cc1ccccc1,411 nm
same,absorption maximum,in ClC(Cl)Cl,409 nm
same,absorption maximum,in ClCCl,411 nm
CCn1c2ccccc2c2cc(-c3cc(-c4ccc5c(c4)c4ccccc4n5CC)nc(-c4ccc(OC)cc4)n3)ccc21,absorption maximum,in C1CCOC1,365 nm
same,absorption maximum,in CCOC(C)=O,362 nm
same,absorption maximum,in CN(C)C=O,369 nm
same,absorption maximum,in Cc1ccccc1,363 nm
same,absorption maximum,in ClCCl,364 nm
CC1(C)CC(/C=C/c2ccc(-n3ccnc3)cc2)=CC(=C(C#N)C#N)C1,absorption maximum,in C1CCOC1,398 nm
same,absorption maximum,in CC#N,390 nm
same,absorption maximum,in CCO,391 nm
same,absorption maximum,in CCOC(C)=O,390 nm
same,absorption maximum,in ClCCl,393 nm
same,absorption maximum,in c1ccccc1,397 nm
C1=Cc2ccccc2Cc2ccccc21,absorption maximum,in CC#N,285 nm
same,absorption maximum,in CO,285 nm
c1ccc(N(c2ccccc2)c2ccc(-c3ccc(-c4ccc(N(c5ccccc5)c5ccccc5)cc4)c4nsnc34)cc2)cc1,absorption maximum,in ClCCl,459 nm
CCC1=C(C)C2=Cc3c4ccccc4c4n3[B-](c3ccccc3)(Oc3ccccc3-4)[N+]2=C1C (configuration not stated),absorption maximum,in CC#N,621 nm
same,absorption maximum,in CCCCCC,625 nm
same,absorption maximum,in Cc1ccccc1,629 nm
same,absorption maximum,in ClCCl,627 nm
Cc1ccc(-c2ccc(/C=C/c3ccc(C#N)cc3)cn2)nc1,absorption maximum,in CC#N,343 nm
Cc1ccc(-c2ccc(/C=C/c3ccc(F)cc3)cn2)nc1,absorption maximum,in CC#N,334 nm
COc1ccc2c3c(c4ccc(C(C)(C)C)cc4c2c1)=C(c1cc(OC)c(OC)c(OC)c1)C1=Nc2c(-c4cc(OC)c(OC)c(OC)c4)c4c5ccc(C(C)(C)C)cc5c5cc(OC)ccc5c4n2[B-](F)(F)[N+]=31,absorption maximum,in Cc1ccccc1,797 nm
CC(C)(C)NC(=O)c1cccc2ccc3c4ccc(F)cc4c4cc(F)ccc4c3c12,absorption maximum,in ClCCl,329 nm
CCCCCCCCOC(=O)c1cc2ccc3ccccc3c2c(C#N)c1N,absorption maximum,in Cc1ccccc1,435 nm
O=c1c2cc(F)c(O)cc2sc2cc(O)c(F)cc12,absorption maximum,in CCO,377 nm
C(=C\c1c2ccccc2cc2ccccc12)/c1cccc2ccccc12,absorption maximum,in CC1CCCCC1,386 nm
same,absorption maximum,in CC#N,386 nm
CCCCCCc1ccc(-n2c3[n+](c4c5ccccc5c5ccccc5c42)[B-](C)(C)c2cc(-n4c5ccccc5c5ccccc54)ccc2-3)cc1,absorption maximum,in C1CCOC1,370 nm
same,absorption maximum,in CC#N,369 nm
same,absorption maximum,in Cc1ccccc1,375 nm
same,absorption maximum,in ClCCl,372 nm
COc1ccc(-c2cc(-c3ccc(N(C)C)cc3)nc(-c3ccccc3)n2)cc1,absorption maximum,in ClC(Cl)Cl,365 nm
CC1CC=C(c2ccc(-c3ccc(C#N)s3)s2)CC1 (configuration not stated),absorption maximum,in C1CCOC1,357 nm
same,absorption maximum,in CC#N,355 nm
same,absorption maximum,in CCCCCC,356 nm
same,absorption maximum,in CCO,358 nm
same,absorption maximum,in OCCOCCO,366 nm
same,absorption maximum,in c1ccncc1,363 nm
c1cc2cc(c1)c1ccc3c(c1)c1cc(ccc1[C@]14OCCO[C@]31OCCO4)c1ccc3c(c1)c1cc(ccc1[C@]14OCCO[C@]31OCCO4)c1cccc2c1,absorption maximum,in ClC(Cl)Cl,260 nm
CN(C)c1ccc(/C=C(\C#N)c2nc3ccccc3s2)cc1,absorption maximum,in C1CCCCC1,430 nm
same,absorption maximum,in CO,450 nm
COC(=O)c1[nH]c(-c2ccccc2)c2nnc3ccsc3c12,absorption maximum,in ClCCl,401 nm
CCCCCCCC[Si](C)(C)c1cccc2ccccc12,absorption maximum,in C1CCCCC1,294 nm
CC1=CC(/C=C/c2ccc(OCCCN=[N+]=[N-])cc2)=[N+]2C1=C(c1ccc(N3CCCCC3)cc1)c1c(C)cc(C)n1[B-]2(F)F,absorption maximum,in CO,570 nm
COc1ccc(C#Cc2c3cc4ccccc4cc3c(C#C[Si](C(C)C)(C(C)C)C(C)C)c3cc4ccccc4cc23)cc1,absorption maximum,in ClCCl,655 nm
c1ccc2[nH]c(-c3cc(-c4nc5ccccc5[nH]4)cc(-c4nc5ccccc5[nH]4)c3)nc2c1,absorption maximum,in CS(C)=O,316 nm
COc1ccc(-c2c3nc(cc4ccc([nH]4)c(-c4ccc(OC)c(OCC(=O)O)c4)c4nc(cc5ccc2[nH]5)C=C4)C=C3)cc1OCC(=O)O,absorption maximum,in CS(C)=O,633 nm
Brc1ccc(/C=C/c2cnc3ccccc3n2)cc1,absorption maximum,in ClCCl,369 nm
c1ccc(CO[Si]23n4c5c6ccccc6c4/N=C4N=C(/N=c6/c7ccccc7c(n62)=c2c6ccccc6c(n23)=N5)c2ccccc2\4)cc1 (configuration not stated),absorption maximum,in CN(C)C=O,658 nm
Clc1ccc2nc3cc4ccccc4cc3c(-c3ccccc3)c2c1,absorption maximum,in ClCCl,402 nm
I[I-]I,absorption maximum,in O,351.77 nm
COc1ccc(-c2cc(N3CCCCC3)c(C#N)c3c2-c2cccc4cccc-3c24)cc1,absorption maximum,in O,430 nm
Cc1nc2c(ccc3ccccc32)oc1=O,absorption maximum,in c1ccccc1,364 nm
CCCCCCN1C(=O)c2cccc3c(-c4ccc(OC)s4)ccc(c23)C1=O,absorption maximum,in ClC(Cl)Cl,407 nm
CN(C)c1ccc2nc(-c3ccccc3)c(=O)oc2c1,absorption maximum,in c1ccccc1,436 nm
CCCCCCCCn1c2cc(/C=C/c3ccc(N(c4ccccc4)c4ccccc4)cc3)ccc2c2cc3c(cc21)c1ccc(/C=C/c2ccc(N(c4ccccc4)c4ccccc4)cc2)cc1n3CCCCCCCC,absorption maximum,in Cc1ccccc1,416 nm
CC(C)(C)c1ccc2c(c1)c1cc(C(C)(C)C)ccc1n2-c1ccc(-c2ccc3c(c2)C(=O)c2ccc(-c4ccc(-n5c6ccc(C(C)(C)C)cc6c6cc(C(C)(C)C)ccc65)cc4)cc2C3=O)cc1,absorption maximum,in Cc1ccccc1,426 nm
COc1cc2sc3nc(-c4ccccc4OC)sc3c2cc1OC,absorption maximum,in CS(C)=O,365 nm
CSc1sc(C(N)=O)c2nnn(C)c(=O)c12,absorption maximum,in C1CCOC1,393 nm
same,absorption maximum,in CC#N,394.5 nm
same,absorption maximum,in CCO,397 nm
same,absorption maximum,in CN(C)C=O,396.5 nm
same,absorption maximum,in CO,397 nm
same,absorption maximum,in CS(C)=O,398.5 nm
c1ccc2c(c1)CC1(C2)c2cc(N3c4ccccc4Sc4ccccc43)ccc2-c2ccc(N3c4ccccc4Sc4ccccc43)cc21,absorption maximum,in Cc1ccccc1,310 nm
C#Cc1ccc2c(C)cc(=O)oc2c1,absorption maximum,in CCO,325 nm
COc1ccc(-n2nc(C#N)c(N3CCCC3)n2)cc1,absorption maximum,in CC#N,340 nm
same,absorption maximum,in CCCCCC,335 nm
same,absorption maximum,in CCO,339 nm
same,absorption maximum,in CN(C)C=O,343 nm
same,absorption maximum,in CO,340 nm
same,absorption maximum,in ClC(Cl)Cl,342 nm
COc1ccc(-c2nc3c([nH]2)C2=CC(=O)S[C@]2(C)[C@@]2(C)SC(=O)C=C32)cc1,absorption maximum,in CC#N,392 nm
C(#Cc1ccccc1C#Cc1ccccc1)c1ccccc1,absorption maximum,in CC#N,310 nm
COc1ccc(/C=C/c2ccc(-c3nnc(-c4ccc(-c5cc6ccccc6s5)cc4)o3)cc2)cc1,absorption maximum,in CC#N,337 nm
same,absorption maximum,in CC(C)=O,341 nm
same,absorption maximum,in CCCCCCCC,337 nm
same,absorption maximum,in CCCCCCCCCCO,346 nm
same,absorption maximum,in CCCCCCCCO,347 nm
same,absorption maximum,in CCCCCO,346 nm
same,absorption maximum,in CCCO,345 nm
same,absorption maximum,in CN(C)C=O,351 nm
same,absorption maximum,in CO,345 nm
same,absorption maximum,in CS(C)=O,348 nm
FC(F)(F)c1ccc(-c2ccc(-c3cc(-c4ccccn4)nc(-c4ccccn4)c3)cc2)cc1,absorption maximum,in ClCCl,289 nm
COc1ccc2ccccc2c1C1=CC(c2ccccc2)=C(c2ccccc2)C1,absorption maximum,in ClCCl,340 nm
C[N+]1=C(/C=C/C2=C3Oc4c(cc5c6c4CCCN6CCC5)C(c4ccccc4C(=O)O)=C3CCC2)C(C)(C)c2ccccc21,absorption maximum,in CC#N,724 nm
same,absorption maximum,in CCO,710 nm
same,absorption maximum,in CO,714 nm
same,absorption maximum,in ClC(Cl)Cl,730 nm
O=C(c1ccc(N2c3ccccc3Sc3ccccc32)cc1)c1ccc2sc3ccccc3c2c1,absorption maximum,in C1CCOC1,330 nm
C(=C\c1ncc(-c2ccc(OCc3ccccc3)c(OCc3ccccc3)c2)o1)/c1cccc(N2CCN(c3ccccc3)CC2)c1,absorption maximum,in ClCCl,355 nm
COc1cc(N(c2ccccc2)c2ccc(C=C(C#N)C#N)c(OC)c2)ccc1C=C(C#N)C#N,absorption maximum,in C1COCCO1,464 nm
same,absorption maximum,in CC#N,477 nm
same,absorption maximum,in CC(C)=O,470 nm
same,absorption maximum,in CCOC(C)=O,468 nm
same,absorption maximum,in CN(C)C=O,469 nm
same,absorption maximum,in CO,471 nm
same,absorption maximum,in Cc1ccccc1,471 nm
same,absorption maximum,in ClC(Cl)Cl,480 nm
same,absorption maximum,in ClCCl,479 nm
CCCCCOc1cc2oc(=O)c3c4ccc(N)cc4c4ccc5cccc6c(c1)c2c3c4c56,absorption maximum,in C1CCOC1,471 nm
COC(=O)c1cc(=O)n(C)c2cc(-c3ccc4c(c3)OCCO4)sc12,absorption maximum,in CC#N,398 nm
same,absorption maximum,in ClCCl,402 nm
COc1ccc(-c2cnc3cccc(-c4ccc(C(C)=O)cc4)n23)cc1,absorption maximum,in ClCCl,366 nm
CCCCCCCCCCc1cc(-c2cc(CCCCCCCCCC)c(-c3cccs3)s2)sc1-c1cccs1,absorption maximum,in CCCCCCCCCCCCCC,380 nm
Cc1ccc(O)cc1,absorption maximum,in O,276 nm
CCCCOc1c(OC)cc2cc(OC)c(OCCCC)c3c4c(OCCCC)c(OC)cc5cc(OC)c(OCCCC)c(c1c23)c54,absorption maximum,in ClCCl,451 nm
CCCC1=Cc2nc1ccc1[nH]c(cc1CCOC)c1nc(ccc3[nH]c2cc3CCC)C(CCOC)=C1,absorption maximum,in Cc1ccccc1,638 nm
Cc1cc(C)c([B-]2(c3c(C)cc(C)cc3C)[O+]=P(c3ccccc3)(c3ccccc3)c3cc(-c4ccc(N(C)C)cc4)sc3-c3sc(-c4ccc(N(C)C)cc4)cc32)c(C)c1,absorption maximum,in C1CCOC1,445 nm
c1cc2cc(c1)c1ccc3ccc4ccc(cc4c3c1)c1ccc3ccc4ccc(cc4c3c1)c1cccc2c1,absorption maximum,in Cc1ccccc1,355 nm
c1ccc(-c2cc3cc4cccc5c(-c6ccccc6)cc6cc7cccc2c7c3c6c45)cc1,absorption maximum,in ClCCl,439 nm
O=C(O)C1=CC(=C/C=[N+]2/c3cc(O)c(C[C@@H]4O[C@H](CO)[C@@H](O)C(O)[C@H]4O)cc3C[C@H]2C(=O)O)C=C(C(=O)O)N1 (some centres not stated),absorption maximum,in CO,467 nm
same,absorption maximum,in O,468 nm
same,absorption maximum,in OCCO,476 nm
same,absorption maximum,in [2H]O[2H],468 nm
